The source of these data is PMC7862291, “Full-length in meso structure and mechanism of rat kynurenine 3-monooxygenase inhibition” (Communications Biology, 2021).

One data set addresses T1, Rat KMO (Rattus norvegicus, UniProt O88867).
T1 construct: The GST-tagged full-length KMO (1-478) baculovirus vector contained a thrombin cleavage site; GST (thrombin cleavage site between GST and KMO) (N, cleaved yes); made in house; host or cells: Spodoptera frugiperda (Sf9), baculovirus
The data set can be described thus: Rat KMO enzyme (cell-free) assay, NADPH consumption by absorbance. The format is biochemical. As to the method:
(§1) Human KMO was purchased from Origene and used to assay compounds. Full-length Rat-KMO purified for crystallisation was used to assay compounds. Full-length Rat-KMO-expressing membranes were used for mutant assays (Fig. 4b) only. […] Images were taken using Odyssey CLX (LI-COR Biosciences) and quantified using ImageStudio2.0 (LI-COR Biosciences) software.
(§2) Test compounds were dissolved in DMSO and diluted with assay buffer containing 50 mM HEPES, 2 mM MgCl2, 0.5 mM EGTA, 1 mM DTT, 0.05% Tween20 and 0.005% of antiform SI (pH = about 7.9) to prepare a 4% DMSO solution. […] After 5 min of pre-incubation, reactions were started by adding 10 μL of substrate solution containing 2.4 mM kynurenine and 0.6 mM NADPH. Reactions were run for 90 min at 30 °C, then terminated by adding 5 μL of stop buffer (40 mM maleimide, 2 mM WST-9 and 0.1 mM 1-methoky PMS in water). […] Liposomal assays were performed in the same manner except that the composition of the assay buffer was changed (phosphate-buffered saline, 2 mM MgCl2, 1 mM DTT, 0.05% Tween 20).
(§3) Compound assays were analysed and plotted on graphs using Prism (GraphPad Software Inc. San Diego, CA, USA).

In another data set the target is T2, hKMO (Homo sapiens, UniProt O15229).
T2 construct: purchased Origene
T2 sequence (O15229 whole entry): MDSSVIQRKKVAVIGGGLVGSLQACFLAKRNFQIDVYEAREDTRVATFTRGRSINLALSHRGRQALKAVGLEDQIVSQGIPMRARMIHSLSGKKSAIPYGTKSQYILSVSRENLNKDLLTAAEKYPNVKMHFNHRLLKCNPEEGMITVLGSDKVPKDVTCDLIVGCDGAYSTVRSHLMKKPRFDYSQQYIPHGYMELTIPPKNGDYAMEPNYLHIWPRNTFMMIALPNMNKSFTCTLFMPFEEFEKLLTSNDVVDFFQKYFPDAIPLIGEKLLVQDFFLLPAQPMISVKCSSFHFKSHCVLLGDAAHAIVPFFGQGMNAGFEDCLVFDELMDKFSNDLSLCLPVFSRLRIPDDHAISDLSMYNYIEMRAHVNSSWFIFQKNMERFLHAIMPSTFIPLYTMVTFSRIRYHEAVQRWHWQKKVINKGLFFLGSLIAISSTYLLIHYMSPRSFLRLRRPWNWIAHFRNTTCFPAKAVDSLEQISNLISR
The data set can be described thus: Human KMO enzyme (cell-free) assay, NADPH consumption by absorbance. The data set is classed as biochemical. As to the method:
as §1, §2, §3

The nature of data set [1]: Pharmacokinetic (brain penetration) study in rats. The format is in vivo. The following applies: Sprague-Dawley Crl:CD(SD), rat, male SD rats, 10 mg/kg ip, 1 h after a single administration. As to the method: Brain penetration studies were conducted in non-fasted male SD rats [Sprague-Dawley rats Crl:CD(SD), 8 weeks of age]. Compound 1 was intraperitoneally (ip) administered at 10 mg/kg in a solution of saline containing 10% dimethylformamide, 10% propylene glycol, and 4% 1 normality (N) sodium hydrate. […] Blood and brain were collected at 1 h after a single administration. The test compound in plasma samples or brain samples was extracted by deproteination with acetonitrile, and then analysed using LC-MS/MS.

In data set [2] the target is T3, HEK293 cells stably expressing human KMO (Homo sapiens, UniProt O15229).
T3 construct: expressed in transfected cells
T3 sequence (O15229 whole entry): as above
Briefly: Cell-based human KMO inhibition assay (LC/MS of 3-hydroxykynurenine). The following applies: for inhibition rate, Hs-KMO cellular assay (Figure 1C source data): duplicates. The method, then: (§4) HEK293 cells stably expressing human or rat KMO were maintained in DMEM containing 10% fetal bovine serum, 50 units/mL penicillin, 50 μg/mL streptomycin and 0.2 mg⁄mL zeocine. […] After 2 overnights, the medium was replaced with 10 μL/well of assay buffer (1 × HBSS containing 20 mM HEPES). Ten microliters per well of the diluted test compounds (final, 0–30 μM, 0.3% DMSO) were added to the respective wells. After ~30 min of pre-incubation at 37 °C, reactions were started by adding 20 μL of substrate solution containing 0.2 mM kynurenine. Reactions were run for 2 h at 37 °C, the assay buffer was discarded and the plate was immediately frozen and stored at −30 °C until LC/MS analysis.
(§5) An 80 µL volume of cold acetonitrile with 2% formic acid was added to the cell pellet in a 384-well plate and centrifuged at 3000 rpm for 10 min at 4 °C. A 40 µL volume of the supernatant was transferred to a new 384-well plate and evaporated to dryness under nitrogen gas at 45 °C. The residue was reconstituted in 100 µL of acetonitrile/water (10:90, v/v) with 0.1% formic acid, and 1 µL was injected into the LC-MS/MS system.
(§6) LC/MS/MS was performed on a Shimadzu UFLC Nexera X2 (Shimadzu Corporation, Japan) and an QTRAP® 5500 LC-MS/MS System (SCIEX, Framingham, USA). Chromatographic separation was performed using an Allure PFP Propyl analytical column (5 µm, 2.1 × 100 mm) maintained at 50 °C. The autosampler temperature was set at 15 °C. The mobile phase consisted of formic acid/water/acetonitrile/methanol (0.5/500/250/250, v/v/v/v) and the flow rate was set at 0.3 mL/min. 3-hydroxykynurenine was eluted from the LC column at a retention time of 1.2 min. The MS system was operated using electrospray ionization (ESI) in positive mode. The optimum conditions were curtain gas, 20 psi; ion spray voltage, 5500 V; heated nebulizer temperature (TEM), 700 °C; nebulizing gas (GS1), 70 psi; and heater gas (GS2), 70 psi. […] Analyst® software (SCIEX, Framingham, USA) was used for system control and MultiQuant™ Software (SCIEX, Framingham, USA) was used for data analysis.
as §3

The target in data set [3] is T4, HEK293 cells stably expressing rat KMO (Rattus norvegicus, UniProt O88867).
T4 construct: expressed in transfected cells
T4 sequence (O88867 whole entry): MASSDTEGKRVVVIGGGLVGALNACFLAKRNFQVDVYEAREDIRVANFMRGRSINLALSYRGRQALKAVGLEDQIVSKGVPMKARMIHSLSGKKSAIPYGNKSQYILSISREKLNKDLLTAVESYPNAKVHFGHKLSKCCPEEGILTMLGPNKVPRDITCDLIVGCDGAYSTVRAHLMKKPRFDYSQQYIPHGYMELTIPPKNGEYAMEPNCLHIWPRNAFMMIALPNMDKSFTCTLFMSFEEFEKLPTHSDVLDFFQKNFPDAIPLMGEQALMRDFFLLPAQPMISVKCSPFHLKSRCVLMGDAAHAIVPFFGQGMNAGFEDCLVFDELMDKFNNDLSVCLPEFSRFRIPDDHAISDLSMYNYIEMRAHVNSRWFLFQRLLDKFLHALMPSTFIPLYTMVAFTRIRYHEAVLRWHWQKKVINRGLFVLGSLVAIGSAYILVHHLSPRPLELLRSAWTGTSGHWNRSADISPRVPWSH
Briefly: Cell-based rat KMO inhibition assay (LC/MS of 3-hydroxykynurenine). The following applies: duplicates. As to the method:
as §4, §5, §6, §3

The test system of data set [4] is KMO. Further details: method as in ref 27 Jacobs et al. The following applies: 600 μM kynurenine, recombinant protein, fluorescence; ref 27 Jacobs et al; cited from earlier work.
In data set [5] the test system is KMO. Further details: method as in ref 20 Winkler et al. As to conditions: 100 kynurenine, CHO cells, LC/MS; ref 20 Winkler et al; read-out: cellular IC50 (Winkler et al); cited from earlier work.

The structures appear in SMILES notation. “And” between values parts separate entries of the source, which are not always exact repeats. Equal entries are not always repeated. Where two headings read alike, the source gives them in different places.

T1 sequence (O88867 whole entry): as above

In the case of `COc1ccc2c(c1)CN(c1nc(C(=O)N(C)c3cc(Cl)c(F)cc3C(=O)O)c(Cl)s1)C2` [Compound 4], the IC50 on Rat KMO (cell-free enzyme assay, high kynurenine) was 17 nM; on hKMO (cell-free enzyme assay, high kynurenine, read-out: Human KMO IC50) it was 14 nM. Moreover, the “inhibition rate, Rat-KMO cell-free assay (Figure 1B source data)” value (shortened to “inhibition rate, Rat-KMO cell-free assay”) against Rat KMO (conc 0.0003 μM, duplicates) is on record as 10.786%; against Rat KMO (conc 0.001 μM, duplicates), 13.043%; at Rat KMO (conc 0.003 μM, duplicates), 19.707%; at Rat KMO (conc 0.01 μM, duplicates), 32.767%; against Rat KMO (conc 0.03 μM, duplicates) it was 60.579%; against Rat KMO (conc 0.1 μM, duplicates), 80.975%. Further, the “inhibition rate, Rat-KMO cell-free assay” value against Rat KMO (conc 0.3 μM, duplicates) was 95.593%; against Rat KMO (conc 1 μM, duplicates) it was 93.954%. Moreover, the inhibition at 0.0003 µM at Rat KMO (conc 0.0003 μM, duplicates, read-out: inhibition rate, Rat-KMO cell-free assay (Figure 1B source data)) is 11.1%; at hKMO (conc 0.0003 μM, duplicates, read-out: inhibition rate, Hs-KMO cell-free assay (Figure 1A source data)) it was 8.45%. Further, the inhibition at 0.001 µM at Rat KMO (conc 0.001 μM, duplicates, read-out: inhibition rate, Rat-KMO cell-free assay (Figure 1B source data)) amounted to 12.6%; on hKMO (conc 0.001 μM, duplicates, read-out: inhibition rate, Hs-KMO cell-free assay (Figure 1A source data)), 4.54%. For the same compound, the inhibition at 0.003 µM stood at 21.2% at Rat KMO (conc 0.003 μM, duplicates, read-out: inhibition rate, Rat-KMO cell-free assay (Figure 1B source data)) and 15.5% at hKMO (conc 0.003 μM, duplicates, read-out: inhibition rate, Hs-KMO cell-free assay (Figure 1A source data)). Also, the inhibition at 0.01 µM at Rat KMO (conc 0.01 μM, duplicates, read-out: inhibition rate, Rat-KMO cell-free assay (Figure 1B source data)) came to 33%; on hKMO (conc 0.01 μM, duplicates, read-out: inhibition rate, Hs-KMO cell-free assay (Figure 1A source data)), 34.9%. Besides, the inhibition at 0.03 µM at Rat KMO (conc 0.03 μM, duplicates, read-out: inhibition rate, Rat-KMO cell-free assay (Figure 1B source data)) worked out at 60.5%; on hKMO (conc 0.03 μM, duplicates, read-out: inhibition rate, Hs-KMO cell-free assay (Figure 1A source data)), 74.2%. Further, the inhibition at 0.1 µM is 83% on Rat KMO (conc 0.1 μM, duplicates, read-out: inhibition rate, Rat-KMO cell-free assay (Figure 1B source data)) and 92.8% on hKMO (conc 0.1 μM, duplicates, read-out: inhibition rate, Hs-KMO cell-free assay (Figure 1A source data)). The inhibition at 0.3 µM at Rat KMO (conc 0.3 μM, duplicates, read-out: inhibition rate, Rat-KMO cell-free assay (Figure 1B source data)) is 101%; on hKMO (conc 0.3 μM, duplicates, read-out: inhibition rate, Hs-KMO cell-free assay (Figure 1A source data)) it was 106%. Moreover, the inhibition at 1 µM at Rat KMO (conc 1 μM, duplicates, read-out: inhibition rate, Rat-KMO cell-free assay (Figure 1B source data)) was 97.8%; on hKMO (conc 1 μM, duplicates, read-out: inhibition rate, Hs-KMO cell-free assay (Figure 1A source data)), 104%. The “inhibition rate, Hs-KMO cell-free assay (Figure 1A source data)” value (“inhibition rate, Hs-KMO cell-free assay” for short) was found to be 6.826% against hKMO (conc 0.001 μM, duplicates); 16.103% on hKMO (conc 0.003 μM, duplicates); 39.429% on hKMO (conc 0.01 μM, duplicates); 71.311% at hKMO (conc 0.03 μM, duplicates); 87.583% at hKMO (conc 0.1 μM, duplicates); 98.840% on hKMO (conc 0.3 μM, duplicates). For the same compound, the “inhibition rate, Hs-KMO cell-free assay” value at hKMO (conc 1 μM, duplicates) was determined as 98.570%.
With `Cn1c(=O)[nH]c(=O)c2cc(-c3ncccc3-c3ccc(Cl)c(F)c3)ccc21` [Compound 5], the Kp at 1 h in data set [1] (brain/plasma) is 0.8. Moreover, the concentration at 1 h stood at 6020 ng/g in data set [1] (brain, read-out: Exposure in brain) and 7560 ng/mL in data set [1] (plasma, read-out: Exposure in plasma).
Turning to `COc1ccc(S(=O)(=O)Nc2nc(-c3cccc([N+](=O)[O-])c3)cs2)cc1OC` [Ro 61-8048, reference compound], the IC50 in data set [2] (100 μM kynurenine, HEK293, LC/MS, species not given, read-out: cellular IC50 (this study)) was 1200 nM; in the data set on KMO [4], 780 ± 1000 nM; on hKMO (1200 μM kynurenine, recombinant protein, absorbance, species not given, read-out: IC50 (cell-free assay, this study)) it was 1400 nM; with KMO [5], 640 nM. Also, the “inhibition rate, Hs-KMO cellular assay (Figure 1C source data)” value in data set [2] (conc 0.03 μM) was 4.914% and 11.092%; in data set [2] (conc 0.1 μM), 7.800% and 13.947%; in data set [2] (conc 0.3 μM) it was 9.982% and 16.379%; in data set [2] (conc 1 μM), 34.540% and 30.293%; in data set [2] (conc 3 μM), 100.863% and 99.409%; in data set [2] (conc 10 μM), 104.869% and 104.896%. Besides, the “inhibition rate, Hs-KMO cellular assay (Figure 1C source data)” value in data set [2] (conc 30 μM) is 105.453%. For the same compound, the “inhibition rate, Rat-KMO cellular assay (Figure 1D source data)” value was 12.914% and 13.940% in data set [3] (conc 0.03 μM); 6.038% and 6.971% in data set [3] (conc 0.1 μM); 6.605% and 2.668% in data set [3] (conc 0.3 μM); 18.248% and 25.802% in data set [3] (conc 1 μM); 86.872% and 86.727% in data set [3] (conc 3 μM); 97.726% and 97.601% in data set [3] (conc 10 μM). The “inhibition rate, Rat-KMO cellular assay (Figure 1D source data)” value in data set [3] (conc 30 μM) was 99.995% and 100.184%. The “inhibition rate, Rat-KMO cell-free assay” value against Rat KMO (conc 0.03 μM, duplicates) was 9.186% and 13.905%; against Rat KMO (conc 0.1 μM, duplicates) it was 21.990% and 21.221%; at Rat KMO (conc 0.3 μM, duplicates) it was 47.520% and 47.997%; against Rat KMO (conc 1 μM, duplicates), 71.114% and 72.121%; at Rat KMO (conc 3 μM, duplicates) it was 77.185% and 81.347%; against Rat KMO (conc 10 μM, duplicates), 87.099% and 89.538%. Moreover, the “inhibition rate, Rat-KMO cell-free assay” value on Rat KMO (conc 30 μM, duplicates) was 98.075% and 95.980%; at Rat KMO (conc 100 μM, duplicates), 89.963% and 91.580%. Further, the “inhibition rate, Hs-KMO cell-free assay” value was 7.785% and 11.650% against hKMO (conc 0.03 μM, duplicates); 5.377% and 7.729% against hKMO (conc 0.1 μM, duplicates); 12.406% and 14.871% at hKMO (conc 0.3 μM, duplicates); 37.359% and 37.779% on hKMO (conc 1 μM, duplicates); 72.366% and 74.382% against hKMO (conc 3 μM, duplicates); 94.630% against hKMO (conc 10 μM, duplicates). For the same compound, the “inhibition rate, Hs-KMO cell-free assay” value is 102.611% and 104.600% against hKMO (conc 30 μM, duplicates); 98.579% and 94.322% against hKMO (conc 100 μM, duplicates).
